Reference: patent publication US6737383B1, “Herbicidal oxadiazolidines” (priority 1999, dated 2004)

Experiments:
pigweed = test: Test B pre/postemergence pigweed; format: in vivo, Amaranthus retroflexus
How it was run: (§1)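 Response is a visual 0-to-10 score relative to untreated plants, where 0 means no effect and 10 means complete control, taken twelve to sixteen days after application. Treatments went onto soil at planting and onto foliage of 1- to 4-leaf plants, using a surfactant-containing non-phytotoxic solvent.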

rice = test: Test B flood test rice; format: in vivo, Oryza sativa
How it was run: (§2)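 Flood test on plants grown to the 2-leaf stage; treated plants kept in greenhouse twelve to sixteen days, then visually rated against controls on a 0 (no effect) to 10 (complete control) scale.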

giant foxtail = test: Test B pre/postemergence giant foxtail; format: in vivo, Setaria faberii
How it was run: as §1

corn = test: Test B pre/postemergence corn; format: in vivo, Zea mays
How it was run: as §1

morningglory = test: Test B pre/postemergence morningglory; format: in vivo, Ipomoea hederacea
How it was run: as §1

cocklebur = test: Test B pre/postemergence cocklebur; format: in vivo, Xanthium strumarium
How it was run: as §1

crabgrass = test: Test B pre/postemergence crabgrass; format: in vivo, Digitaria sanguinalis
How it was run: as §1

wild oat = test: Test B pre/postemergence wild oat; format: in vivo, Avena fatua
How it was run: as §1

duck salad = test: Test B flood test duck salad; format: in vivo, Heteranthera limosa
How it was run: as §2

bamyardgrass = test: Test B flood test barnyardgrass; format: in vivo, Echinochloa crus-galli
How it was run: as §2

sugar beet = test: Test B pre/postemergence sugar beet; format: in vivo, Beta vulgaris
How it was run: as §1

purple nutsedge = test: Test B pre/postemergence purple nutsedge; format: in vivo, Cyperus rotundus
How it was run: as §1

wheat = test: Test B pre/postemergence wheat; format: in vivo, Triticum aestivum
How it was run: as §1

rape = test: Test B pre/postemergence rape; format: in vivo, Brassica napus
How it was run: as §1

soybean = test: Test B pre/postemergence soybean; format: in vivo, Glycine max
How it was run: as §1

velvetleaf = test: Test B pre/postemergence velvetleaf; format: in vivo, Abutilon theophrasti
How it was run: as §1

[1] = Postemergence, Rate 62 g/ha, scale 0 to 10, 0 is no effect, 10 is complete control
[2] = Postemergence, Rate 250 g/ha, scale 0 to 10, 0 no effect, 10 complete control
[3] = Preemergence, Rate 62 g/ha, scale 0 to 10 (0 no effect, 10 complete control)
[4] = Preemergence, Rate 125 g/ha, scale 0 to 10 (0 no effect, 10 complete control)
[5] = Preemergence, Rate 250 g/ha, scale of 0 to 10 where 0 is no effect and 10 is complete control
[6] = Preemergence, Rate 500 g/ha, scale 0 (no effect) to 10 (complete control)
[7] = Rate 125 g/ha, Postemergence, scale 0 to 10, 0 no effect, 10 complete control
[8] = Rate 500 g/ha, Postemergence, scale 0 to 10, 0 no effect, 10 complete control
[9] = Rate 125 g/ha, Postemergence section (flood test species), scale 0 to 10, 0 no effect, 10 complete control
[10] = Rate 500 g/ha, listed under Postemergence (flood test species), scale 0 to 10, 0 no effect, 10 complete control
[11] = flood test, listed under Postemergence, Rate 250 g/ha, scale 0 to 10, 0 no effect, 10 complete control

Cc1ccccc1-n1c(=O)on(C(=O)N(c2cc(F)ccc2F)C(C)C)c1=O [Compound 68]
7: Plant response rating, Redroot pigweed (pigweed; [5])
6: Rape plant response rating (rape; [6])
5: Giant foxtail plant response rating (giant foxtail; [3])
9: Plant response rating, Giant foxtail (giant foxtail; [4])
0: Redroot pigweed plant response rating (pigweed; [1]) | Redroot pigweed plant response rating (pigweed; [2]) | Redroot pigweed plant response rating (pigweed; [3]) | Redroot pigweed plant response rating (pigweed; [7]) | Redroot pigweed plant response rating (pigweed; [8]) | Rice plant response rating (rice; [1]) | Rice plant response rating (rice; [9]) | Rice plant response rating (rice; [10]) | Rice plant response rating (rice; [11]) | Giant foxtail plant response rating (giant foxtail; [1]) | Giant foxtail plant response rating (giant foxtail; [2]) | Giant foxtail plant response rating (giant foxtail; [7]) | Giant foxtail plant response rating (giant foxtail; [8]) | Corn plant response rating (corn; [1]) | Corn plant response rating (corn; [2]) | Corn plant response rating (corn; [3]) | Plant response rating, Corn (corn; [4]) | Plant response rating, Corn (corn; [5]) | Corn plant response rating (corn; [6]) | Corn plant response rating (corn; [7]) | Corn plant response rating (corn; [8]) | Morningglory plant response rating (morningglory; [3]) | Plant response rating, Morningglory (morningglory; [4]) | Plant response rating, Morningglory (morningglory; [5]) | Morningglory plant response rating (morningglory; [6]) | Cocklebur plant response rating (cocklebur; [1]) | Cocklebur plant response rating (cocklebur; [3]) | Plant response rating, Cocklebur (cocklebur; [4]) | Plant response rating, Cocklebur (cocklebur; [5]) | Cocklebur plant response rating (cocklebur; [6]) | Cocklebur plant response rating (cocklebur; [7]) | Crabgrass plant response rating (crabgrass; [1]) | Crabgrass plant response rating (crabgrass; [2]) | Crabgrass plant response rating (crabgrass; [7]) | Crabgrass plant response rating (crabgrass; [8]) | Wild oats plant response rating (wild oat; [1]) | Wild oats plant response rating (wild oat; [2]) | Wild oats plant response rating (wild oat; [3]) | Plant response rating, Wild oats (wild oat; [4]) | Wild oats plant response rating (wild oat; [7]) | Wild oats plant response rating (wild oat; [8]) | Ducksalad plant response rating (duck salad; [1]) | Ducksalad plant response rating (duck salad; [9]) | Ducksalad plant response rating (duck salad; [10]) | Ducksalad plant response rating (duck salad; [11]) | Barnyardgrass plant response rating (bamyardgrass; [1]) | Barnyardgrass plant response rating (bamyardgrass; [9]) | Barnyardgrass plant response rating (bamyardgrass; [10]) | Barnyardgrass plant response rating (bamyardgrass; [11]) | Sugarbeets plant response rating (sugar beet; [1]) | Sugarbeets plant response rating (sugar beet; [2]) | Sugarbeets plant response rating (sugar beet; [3]) | Plant response rating, Sugarbeets (sugar beet; [4]) | Plant response rating, Sugarbeets (sugar beet; [5]) | Sugarbeets plant response rating (sugar beet; [6]) | Sugarbeets plant response rating (sugar beet; [7]) | Nutsedge plant response rating (purple nutsedge; [1]) | Nutsedge plant response rating (purple nutsedge; [2]) | Plant response rating, Nutsedge (purple nutsedge; [4]) | Nutsedge plant response rating (purple nutsedge; [7]) | Nutsedge plant response rating (purple nutsedge; [8]) | Wheat plant response rating (wheat; [1]) | Wheat plant response rating (wheat; [2]) | Wheat plant response rating (wheat; [3]) | Plant response rating, Wheat (wheat; [4]) | Plant response rating, Wheat (wheat; [5]) | Wheat plant response rating (wheat; [6]) | Wheat plant response rating (wheat; [7]) | Wheat plant response rating (wheat; [8]) | Rape plant response rating (rape; [1]) | Rape plant response rating (rape; [2]) | Rape plant response rating (rape; [3]) | Plant response rating, Rape (rape; [4]) | Rape plant response rating (rape; [7]) | Rape plant response rating (rape; [8]) | Soybean plant response rating (soybean; [3]) | Plant response rating, Soybean (soybean; [4]) | Plant response rating, Soybean (soybean; [5]) | Soybean plant response rating (soybean; [6]) | Velvetleaf plant response rating (velvetleaf; [1]) | Velvetleaf plant response rating (velvetleaf; [3]) | Plant response rating, Velvetleaf (velvetleaf; [4]) | Plant response rating, Velvetleaf (velvetleaf; [5]) | Velvetleaf plant response rating (velvetleaf; [6]) | Velvetleaf plant response rating (velvetleaf; [7])
10: Redroot pigweed plant response rating (pigweed; [6]) | Plant response rating, Giant foxtail (giant foxtail; [5]) | Giant foxtail plant response rating (giant foxtail; [6]) | Plant response rating, Crabgrass (crabgrass; [5]) | Crabgrass plant response rating (crabgrass; [6]) | Plant response rating, Nutsedge (purple nutsedge; [5]) | Nutsedge plant response rating (purple nutsedge; [6])
3: Morningglory plant response rating (morningglory; [8]) | Plant response rating, Crabgrass (crabgrass; [4]) | Sugarbeets plant response rating (sugar beet; [8]) | Soybean plant response rating (soybean; [2]) | Soybean plant response rating (soybean; [8]) | Velvetleaf plant response rating (velvetleaf; [8])
2: Plant response rating, Redroot pigweed (pigweed; [4]) | Morningglory plant response rating (morningglory; [1]) | Morningglory plant response rating (morningglory; [2]) | Morningglory plant response rating (morningglory; [7]) | Cocklebur plant response rating (cocklebur; [2]) | Cocklebur plant response rating (cocklebur; [8]) | Crabgrass plant response rating (crabgrass; [3]) | Plant response rating, Wild oats (wild oat; [5]) | Wild oats plant response rating (wild oat; [6]) | Plant response rating, Rape (rape; [5]) | Soybean plant response rating (soybean; [7]) | Velvetleaf plant response rating (velvetleaf; [2])
1: Soybean plant response rating (soybean; [1])
